Source: ChEMBL document CHEMBL4811320, “Design, synthesis and biological evaluation of 2-styryl-5-hydroxy-4-pyrone derivatives and analogues as multiple functional agents with the potential for the treatment of Alzheimer's disease” (Bioorg Med Chem, 2021)
Calls of active or inactive are those of the source. The calls are words filed in the database; no cut-off is given here.

Experiments:
Histamine H3 receptor = Histamine H3 receptor (Homo sapiens, UniProt Q9Y5N1); assay: Antagonist activity at human H3 receptor by TR-FRET assay; format: functional
Histamine H3 receptor, sequence (Q9Y5N1 whole entry): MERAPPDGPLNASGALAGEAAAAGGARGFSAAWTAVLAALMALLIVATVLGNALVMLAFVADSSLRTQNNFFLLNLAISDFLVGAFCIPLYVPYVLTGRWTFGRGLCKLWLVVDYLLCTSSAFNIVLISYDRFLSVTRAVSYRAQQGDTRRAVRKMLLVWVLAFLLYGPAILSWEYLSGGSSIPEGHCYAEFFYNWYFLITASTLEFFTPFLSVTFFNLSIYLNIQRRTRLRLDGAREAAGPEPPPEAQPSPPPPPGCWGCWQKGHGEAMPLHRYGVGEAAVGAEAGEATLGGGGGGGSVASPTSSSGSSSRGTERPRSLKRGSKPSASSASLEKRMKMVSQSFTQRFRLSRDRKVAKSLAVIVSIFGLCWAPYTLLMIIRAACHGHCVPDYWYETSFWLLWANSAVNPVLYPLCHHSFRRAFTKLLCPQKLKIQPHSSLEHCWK

[1] = target: T1, Amyloid-beta precursor protein (Homo sapiens, UniProt P05067); assay: Inhibition of amyloid beta (1 to 42) (unknown origin) self-induced aggregation at 20 uM incubated for 24 hrs by Thioflavin T based fluorometric assay relative to control
T1 sequence (P05067 whole entry): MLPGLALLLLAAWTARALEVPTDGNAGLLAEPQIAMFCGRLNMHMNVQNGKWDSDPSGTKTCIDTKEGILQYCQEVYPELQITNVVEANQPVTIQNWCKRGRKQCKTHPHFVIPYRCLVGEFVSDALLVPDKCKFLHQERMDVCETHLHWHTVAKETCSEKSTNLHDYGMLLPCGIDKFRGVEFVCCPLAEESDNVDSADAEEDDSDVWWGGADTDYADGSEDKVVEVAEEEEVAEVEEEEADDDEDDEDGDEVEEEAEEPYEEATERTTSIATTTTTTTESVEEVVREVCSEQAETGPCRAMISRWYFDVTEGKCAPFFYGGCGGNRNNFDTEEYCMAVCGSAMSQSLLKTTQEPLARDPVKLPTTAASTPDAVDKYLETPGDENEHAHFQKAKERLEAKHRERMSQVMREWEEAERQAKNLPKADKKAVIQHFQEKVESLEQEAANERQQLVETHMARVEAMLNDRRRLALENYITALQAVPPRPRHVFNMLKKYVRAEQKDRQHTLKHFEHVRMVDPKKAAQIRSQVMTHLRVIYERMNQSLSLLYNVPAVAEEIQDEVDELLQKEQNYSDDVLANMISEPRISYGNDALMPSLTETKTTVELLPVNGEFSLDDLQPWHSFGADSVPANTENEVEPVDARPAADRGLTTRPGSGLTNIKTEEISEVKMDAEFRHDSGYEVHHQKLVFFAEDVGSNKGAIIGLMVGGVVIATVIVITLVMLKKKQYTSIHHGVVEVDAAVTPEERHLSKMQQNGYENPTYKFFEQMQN

[2] = Antioxidant activity assessed as trolox equivalent antioxidant capacity; format: functional
[3] = target: T1, Amyloid-beta precursor protein; assay: Inhibition of amyloid beta (1 to 42) (unknown origin) self-induced aggregation incubated for 24 hrs by Thioflavin T based fluorometric assay
[4] = Metal chelating activity assessed as compound-Cu2+ complex formation by UV-Vis spectroscopic analysis
[5] = Metal chelating activity assessed as compound-Fe3+ complex formation by UV-Vis spectroscopic analysis
[6] = Disaggregation of copper-induced amyloid beta (1 to 42) (unknown origin) preformed fibrils at 50 uM measured after 24 hrs by transmission electron microscopic analysis
[7] = Disaggregation of copper-induced amyloid beta (1 to 42) (unknown origin) preformed fibrils at 50 uM measured after 24 hrs by ThT fluorescence assay
[8] = Inhibition of copper-induced amyloid beta (1 to 42) (unknown origin) aggregation at 50 uM measured after 24 hrs by transmission electron microscopic analysis
[9] = target: T1, Amyloid-beta precursor protein; assay: Disaggregation of self-induced amyloid beta (1 to 42) (unknown origin) preformed fibrils assessed as reduction in fluorescence intensity at 20 uM after 24 hrs by thioflavin-T fluorescence assay relative to control; design: scale not given: the % may be the effect or the level left
[10] = target: T1, Amyloid-beta precursor protein; assay: Inhibition of amyloid beta (1 to 42) (unknown origin) self-induced aggregation at 20 uM incubated for 24 hrs by transmission electron microscopic analysis
[11] = Inhibition of copper-induced amyloid beta (1 to 42) (unknown origin) aggregation at 50 uM measured after 24 hrs by thioflavin T based fluorescence assay
[12] = Metal chelating activity assessed as mole fraction required to show 2:1 stoichiometry ratio for compound-Cu2+ complex formation in presence of CuCl2 by Job's plot analysis
[13] = Metal chelating activity assessed as formation of Cu2+-compound complex stoichiometry ratio of 2:1 in presence of CuCl2 by Job's plot analysis
[14] = target: T1, Amyloid-beta precursor protein; assay: Disaggregation of self-induced amyloid beta (1 to 42) (unknown origin) preformed fibrils at 20 uM measured after 24 hrs by transmission electron microscopic analysis

Compound | IC50 (Histamine H3 receptor) [µM] | inhibition [1] [%] | IC50 [3] [µM] | Activity [4] | Activity [5] | Activity [2] | also measured
O=c1cc(/C=C/c2ccc(OCCCN3CCOCC3)cc2)occ1O | 0.0688 | 93.3 | 4.12 |  |  | 4.39 | 
CN(C)CCCOc1ccc(/C=C/c2cc(=O)c(O)co2)cc1 | 0.104 | 76.7 | 4.51 |  |  | 2.21 | 
COc1cc(/C=C/C(=O)CC(=O)/C=C/c2ccc(O)c(OC)c2)ccc1O |  |  |  |  |  | 1.11 | 
O=c1cc(/C=C/c2ccc(O)cc2)occ1O |  |  |  |  |  | 2.03 | 
CN1CCN(CCCOc2ccc(/C=C/c3cc(=O)c(O)cn3C)cc2)CC1 | 0.353 | 75.7 | 6.02 |  |  | 0.73 | 
CCN(CC)CCCC(C)Nc1ccnc2cc(Cl)ccc12 (centres undefined) |  |  |  |  |  |  | Activity [6]: Active; Activity [7]: Active
Cc1c(C)c2c(c(C)c1O)CCC(C)(C(=O)O)O2 (centres undefined) |  |  |  |  |  | 1 | 
CN1CCN(CCCOc2ccc(/C=C/c3cc(=O)c(O)co3)cc2)CC1 | 0.178 | 89.8 | 5.54 |  |  | 4.05 | 
Cn1cc(O)c(=O)cc1/C=C/c1ccc(OCCCN2CCOCC2)cc1 | 0.0301 | 71.9 | 5.32 |  |  | 1.35 | 
CN(C)CCCOc1ccc(/C=C/c2cc(=O)c(O)cn2C)cc1 | 0.0854 | 70.4 | 6.18 |  |  | 1.34 | 

Continued by falling IC50 (Histamine H3 receptor), values first:

IC50 (Histamine H3 receptor) [µM] | inhibition [1] [%] | IC50 [3] [µM] | Activity [4] | Activity [5] | Compound | Activity [2] | also measured
0.0169 | 94.6 | 3.95 | Active | Active | CCN(CC)CCCOc1ccc(/C=C/c2cc(=O)c(O)co2)cc1 | 5.08 | 
0.016 | 17.6 |  |  |  | Oc1cccc2ccc(/C=C/c3ccc(OCCCN4CCCC4)cc3)nc12 | 0.73 | 
0.0145 | 15.7 |  |  |  | Oc1cccc2ccc(/C=C/c3ccc(OCCCN4CCCCC4)cc3)nc12 | 0.96 | 
0.00825 | 91.4 | 2.24 | Active | Active | O=c1cc(/C=C/c2ccc(OCCCN3CCCC3)cc2)occ1O | 4.97 | inhibition [8]: Active; Activity [9]: 35.1%; inhibition [10]: Active; Activity [6]: Active; inhibition [11]: Active; Activity (mole fraction) [12]: 0.671; Activity [7]: Active; Activity [13]: Active; Activity [14]: Active
0.00706 | 85 | 5.38 | Active | Active | CCN(CC)CCCOc1ccc(/C=C/c2cc(=O)c(O)cn2C)cc1 | 1.43 | 
0.00507 | 86.8 | 3.05 | Active | Active | CCn1cc(O)c(=O)cc1/C=C/c1ccc(OCCCN2CCCCC2)cc1 | 1.78 | 
0.00491 | 74.7 | 7.01 |  |  | Cc1oc(/C=C/c2ccc(OCCCN3CCCC3)cc2)cc(=O)c1O | 2.12 | 
0.00474 | 87 | 2.57 | Active | Active | Cn1cc(O)c(=O)cc1/C=C/c1ccc(OCCCN2CCCCC2)cc1 | 1.23 | 
0.00337 | 85.4 | 3.29 | Active | Active | Cn1cc(O)c(=O)cc1/C=C/c1ccc(OCCCN2CCCC2)cc1 | 1.28 | 
0.00274 | 90.8 | 3.26 | Active | Active | O=c1cc(/C=C/c2ccc(OCCCN3CCCCC3)cc2)occ1O | 5.22 | inhibition [8]: Active; Activity [9]: 29.4%; inhibition [10]: Active; Activity [6]: Active; inhibition [11]: Active; Activity (mole fraction) [12]: 0.682; Activity [7]: Active; Activity [13]: Active; Activity [14]: Active
0.00265 | 74.8 | 6.26 |  |  | Cc1oc(/C=C/c2ccc(OCCCN3CCCCC3)cc2)cc(=O)c1O | 1.74 | 
0.00218 | 97.6 | 2.07 | Active | Active | CCn1cc(O)c(=O)cc1/C=C/c1ccc(OCCCN2CCCC2)cc1 | 1.43 | 
